Data: patent publication US20240390383A1, “DIOXAZINES AND THEIR USE IN TREATMENT OF GBA-RELATED DISEASES” (ZEVRA DENMARK A/S, priority 2021, published 2024)
Values joined by “and” are separate entries in the source; they are usually repeats but may differ in a detail not shown here. Equal values may be shown once. Marks after values point to notes of the source that are not given here. Blank lines part the entries; values can stand above or below the compound they belong to.

Target: T1, GCase (GBA) in human fibroblast cell line GM10915 harboring the L444P GBA mutation (Homo sapiens, UniProt P04062, L483P)
T1 construct: Human fibroblast cell line GM10915 harboring the L444P GBA mutation; host or cells: GM10915 human fibroblasts
T1 sequence (P04062 40-536 L483P): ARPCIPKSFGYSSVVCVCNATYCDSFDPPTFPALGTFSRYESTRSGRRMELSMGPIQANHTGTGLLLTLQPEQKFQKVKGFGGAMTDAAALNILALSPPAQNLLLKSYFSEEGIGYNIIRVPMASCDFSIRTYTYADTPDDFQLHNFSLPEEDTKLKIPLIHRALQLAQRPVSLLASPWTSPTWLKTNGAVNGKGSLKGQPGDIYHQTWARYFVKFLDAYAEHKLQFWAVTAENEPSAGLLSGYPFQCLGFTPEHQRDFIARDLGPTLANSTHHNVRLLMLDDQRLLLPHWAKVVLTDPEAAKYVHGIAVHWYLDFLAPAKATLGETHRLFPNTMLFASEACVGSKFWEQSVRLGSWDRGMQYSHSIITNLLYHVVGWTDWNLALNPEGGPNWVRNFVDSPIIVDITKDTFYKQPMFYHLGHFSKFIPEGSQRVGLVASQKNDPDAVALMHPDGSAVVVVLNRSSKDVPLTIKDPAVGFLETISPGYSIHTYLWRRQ
Assay: GCase activity assay (4-MUG substrate, normalised to crystal violet staining) in L444P GBA fibroblasts
Assay type: cell-based
Conditions: 5 days exposure; for GBA EC1.5: concentration giving 150% GCase activity (1.5-fold induction), 8-point dose range
Protocol: Human fibroblast cell line GM10915 harboring the L444P GBA mutation was obtained from Coriell Biorepositories.
All chemicals (Glacial acetic acid, Glycine, 4-Methylumbelliferyl b-D-glucopyranoside (4-MUG), Sodium acetate trihydrate, Sodium hydroxide, Crystal violet, SDS, Ammonium hydroxide) were obtained from Sigma-Aldrich (Denmark) Compounds tested for GCase activity were dissolved in H2O or DMSO.
The GM10915 cell line was cultured under standard cell culture conditions (37° C. and 5% CO2) in complete DMEM medium supplemented with nonessential amino acids (NEAA), 1% Pen-Strep and 12% FCS. Cells were seeded at a density of 10^4 cells/well in 100 μL complete medium in one black 96-well plate for glucosylceramidase (GCase) activity measurement and in one clear 96-well plate for crystal violet staining to correct for cell density. Crystal violet staining is performed to obtain quantitative information about the relative density of cells adhering to multi-wells plates.
The assay was adapted from Sawkar et al (2002) and briefly described in the following. The day after seeding of cells, the medium was replaced with fresh medium containing the compounds to be tested. Compounds were tested in duplicate and in an 8-point diluted dose range to obtain a dose response. Cells were exposed with compounds for five days. Fresh compound was added every 2-3 days. PBS was included to define the basal level of GCase activity.
Cells were washed three times with 200 μL PBS per well and 50 μL of 2.5 mM 4-MUG buffer (4-MUG dissolved in 0.2 M acetate buffer pH 4.0) was added and the cells were incubated at 37° C., 5% CO2 for 23 hours. The reaction was stopped by adding 150 μL 0.2 M glycine buffer (pH 10.8). Fluorescence was measured with a Varioskan® Flash reader (Thermo Scientific) at an excitation/emission setting of 365/445 nm.
Cells were treated with compounds in a parallel setup identical to the setup to test for GCase activity. At the end of compound treatment, cells were washed once with 200 μL PBS per well and 50 μL 0.1% w/v crystal violet (in H2O) was added. Following 10 min. of incubation, the crystal violet solution was removed, and the cells were washed three times with 200 μL PBS and 100 μL 1% SDS was added to solubilize the stain. The plate was agitated on an orbital shaker for 10-30 min. Absorbance (A) is measured at […] using a Varioskan® Flash reader (Thermo Scientific).
The fluorescence signal (F) derived from the GCase measurement is normalized to the absorbance signal (A) derived from the crystal violet staining. The percent GCase activity resulting from compound treatment is calculated relative to the basal activity obtained from untreated cells.
Maximal effect of compounds (Emax) is determined from the dose response effects as the maximum “Percent GCase activity” achieved in the dose range tested.

[1] = maximum percent GCase activity relative to untreated cells in the dose range tested

- GBA EC1.5: 25 µM
- Emax [1]: 205%
SMILES: COC1CNCCC1C1=NOCC(CN2CCCCC2)O1 (racemic) [compound 690, rac-3-(3-methoxypiperidin-4-yl)-5-(piperidin-1-ylmethyl)-5,6-dihydro-1,4,2-dioxazine]

- GBA EC1.5: 8 µM
- Emax [1]: 269%
SMILES: COCCC1(C2=NOCC(CN3CCCCC3)O2)CCNCC1 (racemic) [compound 726, rac-3-(4-(2-methoxyethyl)piperidin-4-yl)-5-(piperidin-1-ylmethyl)-5,6-dihydro-1,4,2-dioxazine]

- GBA EC1.5: 4 µM and 5 µM
- GBA Emax [1]: 216% and 272%
SMILES: C1CCN(C[C@@H]2CON=C([C@]34CCC[C@H]3NCC4)O2)CC1 (relative stereo) [compound 589, (rel-R)-3-((rel-trans-3aS,6aR)-hexahydrocyclopenta[b]pyrrol-3a(1H)-yl)-5-(piperidin-1-ylmethyl)-5,6-dihydro-1,4,2-dioxazine]

- GBA EC1.5: 4 µM
- Emax [1]: 225%
SMILES: C1CCN(CC2CON=C([C@]34CCC[C@H]3NCC4)O2)CC1 (some centres unmarked) [compound 558]

- GBA EC1.5: 6 µM
- Emax [1]: 207%
SMILES: C[C@]1(C2=NOC[C@@H](CN3CCCCC3)O2)CCCNC1 [compound 884]

- GBA EC1.5: 14 µM
- Emax [1]: 188%
SMILES: C1CCN(CC2CON=C(C3(C4CCOCC4)CCNC3)O2)CC1 (racemic) [compound 583, rac-5-(piperidin-1-ylmethyl)-3-(3-(tetrahydro-2H-pyran-4-yl)pyrrolidin-3-yl)-5,6-dihydro-1,4,2-dioxazine]

- GBA EC1.5: 22 µM
- Emax [1]: 174%
SMILES: C[C@@]12CNC[C@]1(C1=NOCC(CN3CCCCC3)O1)C2 (relative stereo) [compound 481, rac-rel-trans-3-((1R,5R)-5-methyl-3-azabicyclo[3.1.0]hexan-1-yl)-5-(piperidin-1-ylmethyl)-5,6-dihydro-1,4,2-dioxazine]

- GBA EC1.5: 27 µM
- Emax [1]: 159%
SMILES: c1cncc(CC2(C3=NOCC(CN4CCCCC4)O3)CCNCC2)c1 (racemic) [compound 550, rac-5-(piperidin-1-ylmethyl)-3-(4-(pyridin-3-ylmethyl)piperidin-4-yl)-5,6-dihydro-1,4,2-dioxazine]

- GBA EC1.5: 26 µM
- Emax [1]: 153%
SMILES: OCC1(C2=NOCC(CN3CCCCC3)O2)CCNCC1 (racemic) [compound 722, rac-(4-(5-(piperidin-1-ylmethyl)-5,6-dihydro-1,4,2-dioxazin-3-yl)piperidin-4-yl)methanol]

- GBA EC1.5: 18 µM
- Emax [1]: 178%
SMILES: c1cncc(CC2(C3=NOCC(CN4CCCCC4)O3)CCNC2)c1 (racemic) [compound 643, rac-5-(piperidin-1-ylmethyl)-3-(3-(pyridin-3-ylmethyl)pyrrolidin-3-yl)-5,6-dihydro-1,4,2-dioxazine]

- GBA EC1.5: 49 µM
- Emax [1]: 152%
SMILES: COCC1(C2=NOCC(CN3CCCCC3)O2)CCNC1 (racemic) [compound 594, rac-3-(3-(methoxymethyl)pyrrolidin-3-yl)-5-(piperidin-1-ylmethyl)-5,6-dihydro-1,4,2-dioxazine]

The remaining lines, values behind:

SMILES: COC1CN(C(C)C)CCC1C1=NOCC(CN2CCCCC2)O1 (racemic) [compound 714, rac-3-(1-isopropyl-3-methoxypiperidin-4-yl)-5-(piperidin-1-ylmethyl)-5,6-dihydro-1,4,2-dioxazine]
- GBA EC1.5: 16 µM
- Emax [1]: 213%

SMILES: c1ccc(N2CCC(C3=NOCC(CN4CCCCC4)O3)C2)nc1 (centres unmarked) [compound 672]
- GBA EC1.5: 50 µM
- Emax [1]: 127%

SMILES: C1CCN(CC2CON=C(C3C4CNC3C4)O2)CC1 (racemic) [compound 548, rac-3-(2-azabicyclo[2.1.1]hexan-5-yl)-5-(piperidin-1-ylmethyl)-5,6-dihydro-1,4,2-dioxazine]
- GBA EC1.5: 21 µM
- Emax [1]: 281%

SMILES: FC(F)(F)CN1CCCC(CC2=NOCC(CN3CCCCC3)O2)C1 (centres unmarked) [compound 587]
- GBA EC1.5: 50 µM
- Emax [1]: 100%

SMILES: N[C@@H]1CN[C@@H](C2=NOCC(CN3CCCCC3)O2)C1 (some centres unmarked) [compound 557]
- GBA EC1.5: 50 µM
- Emax [1]: 115%

SMILES: C[C@@H]1ON=C(C2(C)CCNCC2)O[C@H]1CN1CCCCC1 [compound 887]
- GBA EC1.5: 5 µM
- Emax [1]: 233%

SMILES: CC1ON=C(C2CCNC2)OC1CN1CCCCC1 (racemic) [compound 616, rac-6-methyl-5-(piperidin-1-ylmethyl)-3-(pyrrolidin-3-yl)-5,6-dihydro-1,4,2-dioxazine]
- GBA EC1.5: 6 µM
- Emax [1]: 390%

SMILES: Nc1ccc(N2CCC(C3=NOCC(CN4CCCCC4)O3)CC2)nc1 (centres unmarked) [compound 679]
- GBA EC1.5: 50 µM
- Emax [1]: 107%

SMILES: CC1(C)CNCC1C1=NOCC(CN2CCCCC2)O1 (racemic) [compound 688, rac-3-(4,4-dimethylpyrrolidin-3-yl)-5-(piperidin-1-ylmethyl)-5,6-dihydro-1,4,2-dioxazine]
- GBA EC1.5: 34 µM
- Emax [1]: 152%

SMILES: NC(=O)CN1CCCC(C2=NOCC(CN3CCCCC3)O2)C1 (racemic) [compound 711, rac-2-(3-(5-(piperidin-1-ylmethyl)-5,6-dihydro-1,4,2-dioxazin-3-yl)piperidin-1-yl)acetamide]
- GBA EC1.5: 38 µM
- Emax [1]: 198%

SMILES: CC(=O)N1CCC(C2=NOCC(CN3CCCCC3)O2)C1 (centres unmarked) [compound 674]
- GBA EC1.5: 50 µM
- Emax [1]: 123%

SMILES: Fc1cccc(C2(C3=NOCC(CN4CCCCC4)O3)CCCNC2)n1 (centres unmarked) [compound 598]
- GBA EC1.5: 1 µM
- Emax [1]: 179%

SMILES: CNC1CNCC(C2=NOCC(CN3CCCCC3)O2)C1 (racemic) [compound 756, rac-N-methyl-5-(5-(piperidin-1-ylmethyl)-5,6-dihydro-1,4,2-dioxazin-3-yl)piperidin-3-amine]
- GBA EC1.5: 39 µM
- Emax [1]: 121%

SMILES: C1CCN(CCC2=NOCC(CN3CCCCC3)O2)CC1 (racemic) [compound 816, rac-3-(2-(piperidin-1-yl)ethyl)-5-(piperidin-1-ylmethyl)-5,6-dihydro-1,4,2-dioxazine]
- GBA EC1.5: 4 µM
- Emax [1]: 181%

SMILES: Nc1c(Br)cc(Br)cc1CN[C@H]1CC[C@H](O)CC1 [Ambroxol, reference compound]
- GBA EC1.5: >20* *The 1.5-fold induction criteria was not reached within the tested concentration range μM

SMILES: c1ncn2c1CC(C1=NOCC(CN3CCCCC3)O1)CC2 (racemic) [compound 655, rac-5-(piperidin-1-ylmethyl)-3-(5,6,7,8-tetrahydroimidazo[1,5-a]pyridin-7-yl)-5,6-dihydro-1,4,2-dioxazine]
- GBA EC1.5: 8 µM
- Emax [1]: 232%
